The text below walks through data of ChEMBL document CHEMBL1145233, “Design, synthesis and evaluation of 5-substituted amino-2,4-diamino-8-chloropyrimido-[4,5-b]quinolines as novel antimalarials” (2005).

Common to all, as to format: functional
Experiment [1] concerns Mus musculus. Briefly: In vivo antimalarial activity of compound against Plasmodium berghei in mice (Mus musculus) expressed as mean survival time at 40 mg/kg.
The subject of experiment [2] is Mus musculus. Briefly: In vivo antimalarial activity of compound against Plasmodium berghei in mice (Mus musculus) expressed as mean survival time at 80 mg/kg.
Experiment [3] deals with Mus musculus. Briefly: In vivo antimalarial activity of compound against Plasmodium berghei in mice (Mus musculus) expressed as mean survival time at 160 mg/kg.
The subject of experiment [4] is Mus musculus. Briefly: In vivo antimalarial activity of compound against Plasmodium berghei in mice (Mus musculus) expressed as mean survival time at 20 mg/kg.

Regarding `Nc1nc(N)c2c(Nc3cc(CN4CCCC4)c(O)c(CN4CCCC4)c3)c3ccc(Cl)cc3nc2n1`, the Survival time in the experiment on Mus musculus [1], with Mus musculus [2], with Mus musculus [3] and with Mus musculus [4] was above 60 days each time.
Turning to `CN(COOC(C)(C)C)c1c2ccc(Cl)cc2nc2nc(N)nc(N)c12`, the Survival time was 30 days in the experiment on Mus musculus [1], 20 days in the experiment with Mus musculus [2], 14 days with Mus musculus [3] and 28 days in the experiment on Mus musculus [4].
As to `Nc1nc(N)c2c(Nc3ccc(S(N)(=O)=O)cc3)c3ccc(Cl)cc3nc2n1`, the Survival time with Mus musculus [1] was found to be 13 days; in the experiment on Mus musculus [2] it was 15 days; in the experiment with Mus musculus [3], 14 days; with Mus musculus [4], 12 days.
For `CCN(CC)c1cc(Nc2c3ccc(Cl)cc3nc3nc(N)nc(N)c23)cc(N(CC)CC)c1O`, in that order: above 60 days, above 60 days, above 60 days and above 60 days.
In the case of `Nc1nc(N)c2c(N)c3ccc(Cl)cc3nc2n1`, the Survival time in the experiment on Mus musculus [1] came to 16 days; in the experiment with Mus musculus [2], 18 days; in the experiment on Mus musculus [3] it was 20 days; with Mus musculus [4] it was 15 days.
In the same order, the values of `CCN(COOC(C)(C)C)c1c2ccc(Cl)cc2nc2nc(N)nc(N)c12` are 12 days, 14 days, 15 days and 13 days.
In the same order, the values of `Nc1nc(N)c2c(Nc3ccc(S(=O)(=O)Nc4ccccn4)cc3)c3ccc(Cl)cc3nc2n1` are 14 days, 15 days, 13 days and 11 days.
In the same order, the values of `Nc1nc(N)c2c(Nc3ccc(O)c(CN4CCCC4)c3)c3ccc(Cl)cc3nc2n1` are 20 days, 25 days, 26 days and 15 days.
For `COc1ncnc(NS(=O)(=O)c2ccc(Nc3c4ccc(Cl)cc4nc4nc(N)nc(N)c34)cc2)c1OC`, the Survival time in the experiment with Mus musculus [1], in the experiment on Mus musculus [2], in the experiment on Mus musculus [3] and in the experiment with Mus musculus [4] was above 60 days in each case.
Regarding `CCN(CC)c1cc(Nc2c3ccc(Cl)cc3nc3nc(N)nc(N)c23)ccc1O`, the Survival time in the experiment with Mus musculus [1] turned out to be 13 days; in the experiment with Mus musculus [2] it was 15 days; in the experiment on Mus musculus [3], 14 days; in the experiment with Mus musculus [4], 12 days.
`CCN(CC)CCCC(C)Nc1ccnc2cc(Cl)ccc12` (stereo unspecified) [CHLOROQUINE] returned a Survival time with Mus musculus [4] of 15 days.
